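Grown in 96-well plates, cells were treated for 48 hours with each compound at five concentrations. Insufficient inhibition: endpoint recorded as highest concentration tested. The concentration for full growth arrest is given as TGI.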
Key:
Test in all cases: growth of human tumour cells (NCI), 48 h
MALME-3M melanoma = tested on: MALME-3M melanoma
DU-145 prostate = tested on: DU-145 prostate
HOP-92 NSCLC = tested on: HOP-92 NSCLC
TK-10 renal = tested on: TK-10 renal
KM12 colon = tested on: KM12 colon
PC-3 prostate = tested on: PC-3 prostate
COLO 205 colon = tested on: COLO 205 colon
HOP-62 NSCLC = tested on: HOP-62 NSCLC
NCI-H460 lung = tested on: NCI-H460 lung
EKVX NSCLC = tested on: EKVX NSCLC
SNB-75 CNS = tested on: SNB-75 CNS
OVCAR-8 ovarian = tested on: OVCAR-8 ovarian
HCT-15 colon = tested on: HCT-15 colon
OVCAR-5 ovarian = tested on: OVCAR-5 ovarian
NCI/ADR-RES ovarian = tested on: NCI/ADR-RES ovarian
K-562 leukemia = tested on: K-562 leukemia
ACHN renal = tested on: ACHN renal
SF-539 CNS = tested on: SF-539 CNS
MCF7 breast = tested on: MCF7 breast
HCC-2998 colon = tested on: HCC-2998 colon
SF-268 CNS = tested on: SF-268 CNS
U251 CNS = tested on: U251 CNS
HCT-116 colon = tested on: HCT-116 colon
SK-MEL-28 melanoma = tested on: SK-MEL-28 melanoma
OVCAR-3 ovarian = tested on: OVCAR-3 ovarian
SR leukemia = tested on: SR leukemia
A498 renal = tested on: A498 renal
MDA-N = tested on: MDA-N
LOX IMVI melanoma = tested on: LOX IMVI melanoma
T-47D breast = tested on: T-47D breast
NCI-H23 lung = tested on: NCI-H23 lung
RXF 393 renal = tested on: RXF 393 renal
HT29 colon = tested on: HT29 colon
BT-549 breast = tested on: BT-549 breast
RPMI-8226 leukemia = tested on: RPMI-8226 leukemia
NCI-H522 lung = tested on: NCI-H522 lung
M14 melanoma = tested on: M14 melanoma
UACC-257 melanoma = tested on: UACC-257 melanoma
CAKI-1 renal = tested on: CAKI-1 renal
SNB-19 CNS = tested on: SNB-19 CNS
SK-OV-3 ovarian = tested on: SK-OV-3 ovarian
786-0 renal = tested on: 786-0 renal
HS 578T breast = tested on: HS 578T breast
UO-31 renal = tested on: UO-31 renal
SK-MEL-2 melanoma = tested on: SK-MEL-2 melanoma
A549 NSCLC = tested on: A549 NSCLC
SK-MEL-5 melanoma = tested on: SK-MEL-5 melanoma
MDA-MB-435 = tested on: MDA-MB-435
IGROV1 ovarian = tested on: IGROV1 ovarian
OVCAR-4 ovarian = tested on: OVCAR-4 ovarian
SN12C renal = tested on: SN12C renal
HL-60(TB) leukemia = tested on: HL-60(TB) leukemia
SF-295 CNS = tested on: SF-295 CNS
MOLT-4 leukemia = tested on: MOLT-4 leukemia
MDA-MB-231 breast = tested on: MDA-MB-231 breast
NCI-H226 lung = tested on: NCI-H226 lung
SW-620 colon = tested on: SW-620 colon
UACC-62 melanoma = tested on: UACC-62 melanoma
CCRF-CEM leukemia = tested on: CCRF-CEM leukemia

## Cc1c2cccc(Sc3ccccc3)c2c2c3c(cccc13)[S+](c1ccccc1)C2 (stereo unspecified)
MALME-3M melanoma
  TGI: 4.67 µM
DU-145 prostate
  TGI: 15.3 µM
HOP-92 NSCLC
  TGI: 6.6 µM
TK-10 renal
  TGI: 9.55 µM
KM12 colon
  TGI: 2850 nM
PC-3 prostate
  TGI: 5.71 µM
COLO 205 colon
  TGI: 2460 nM
HOP-62 NSCLC
  TGI: 7.35 µM
NCI-H460 lung
  TGI: 4.1 µM
EKVX NSCLC
  TGI: 19.5 µM
SNB-75 CNS
  TGI: 8.14 µM
OVCAR-8 ovarian
  TGI: 12.4 µM
HCT-15 colon
  TGI: 27.8 µM
OVCAR-5 ovarian
  TGI: 12.1 µM
NCI/ADR-RES ovarian
  TGI: > 100 µM
K-562 leukemia
  TGI: 11.2 µM
ACHN renal
  TGI: 12.7 µM
SF-539 CNS
  TGI: 7.91 µM
MCF7 breast
  TGI: 8.93 µM
HCC-2998 colon
  TGI: 4.49 µM
SF-268 CNS
  TGI: 11.8 µM
U251 CNS
  TGI: 9.41 µM
HCT-116 colon
  TGI: 9.59 µM
SK-MEL-28 melanoma
  TGI: 6.84 µM
OVCAR-3 ovarian
  TGI: 6.01 µM
SR leukemia
  TGI: 4.91 µM
A498 renal
  TGI: 8.32 µM
MDA-N
  TGI: 13.8 µM
LOX IMVI melanoma
  TGI: 3.52 µM
T-47D breast
  TGI: 8.24 µM
NCI-H23 lung
  TGI: 9.82 µM
RXF 393 renal
  TGI: 14.9 µM
HT29 colon
  TGI: 7.38 µM
BT-549 breast
  TGI: 9.87 µM
RPMI-8226 leukemia
  TGI: 2850 nM
NCI-H522 lung
  TGI: 4.51 µM
M14 melanoma
  TGI: 6.78 µM
UACC-257 melanoma
  TGI: 3.57 µM
CAKI-1 renal
  TGI: 11.4 µM
SNB-19 CNS
  TGI: 11.2 µM
SK-OV-3 ovarian
  TGI: 6.58 µM
786-0 renal
  TGI: 13.9 µM
HS 578T breast
  TGI: 13.9 µM
UO-31 renal
  TGI: 8.28 µM
SK-MEL-2 melanoma
  TGI: 3.71 µM
A549 NSCLC
  TGI: 14.7 µM
SK-MEL-5 melanoma
  TGI: 2.1 µM
MDA-MB-435
  TGI: 5.24 µM
IGROV1 ovarian
  TGI: 9.12 µM
OVCAR-4 ovarian
  TGI: 11.7 µM
SN12C renal
  TGI: 11.5 µM
HL-60(TB) leukemia
  TGI: 2820 nM
SF-295 CNS
  TGI: 6.33 µM
MOLT-4 leukemia
  TGI: 4.55 µM
MDA-MB-231 breast
  TGI: 5.68 µM
NCI-H226 lung
  TGI: 7.54 µM
SW-620 colon
  TGI: 16.7 µM
UACC-62 melanoma
  TGI: 3.67 µM

## CCNC(=O)OCC1C2=C(C(=O)C(C)=C(N)C2=O)N2CC3C(N3C)C12OC (stereo unspecified)
MALME-3M melanoma
  TGI: 41.8 µM
DU-145 prostate
  TGI: > 100 µM
HOP-92 NSCLC
  TGI: > 100 µM
TK-10 renal
  TGI: > 100 µM
PC-3 prostate
  TGI: > 100 µM
COLO 205 colon
  TGI: > 100000 nM
HOP-62 NSCLC
  TGI: > 100 µM
NCI-H460 lung
  TGI: 12.1 µM
EKVX NSCLC
  TGI: > 100 µM
SNB-75 CNS
  TGI: > 100 µM
OVCAR-8 ovarian
  TGI: > 100 µM
HCT-15 colon
  TGI: 50.7 µM
OVCAR-5 ovarian
  TGI: > 100 µM
NCI/ADR-RES ovarian
  TGI: > 100 µM
K-562 leukemia
  TGI: > 100 µM
ACHN renal
  TGI: > 61.9 µM
SF-539 CNS
  TGI: > 85.1 µM
MCF7 breast
  TGI: > 100 µM
HCC-2998 colon
  TGI: 35.3 µM
SF-268 CNS
  TGI: > 100 µM
U251 CNS
  TGI: > 100 µM
HCT-116 colon
  TGI: > 63.5 µM
SK-MEL-28 melanoma
  TGI: > 100 µM
OVCAR-3 ovarian
  TGI: > 86.2 µM
CCRF-CEM leukemia
  TGI: > 100 µM
SR leukemia
  TGI: > 32.6 µM
A498 renal
  TGI: 77 µM
MDA-N
  TGI: > 100 µM
LOX IMVI melanoma
  TGI: > 68.7 µM
T-47D breast
  TGI: > 100 µM
NCI-H23 lung
  TGI: 14.2 µM
RXF 393 renal
  TGI: > 100 µM
HT29 colon
  TGI: > 100 µM
BT-549 breast
  TGI: 99.1 µM
RPMI-8226 leukemia
  TGI: > 100000 nM
NCI-H522 lung
  TGI: 34.5 µM
M14 melanoma
  TGI: > 100 µM
UACC-257 melanoma
  TGI: > 100 µM
CAKI-1 renal
  TGI: > 100 µM
SNB-19 CNS
  TGI: > 100 µM
SK-OV-3 ovarian
  TGI: > 100 µM
786-0 renal
  TGI: > 83 µM
HS 578T breast
  TGI: > 100 µM
UO-31 renal
  TGI: 64.3 µM
SK-MEL-2 melanoma
  TGI: 71.2 µM
A549 NSCLC
  TGI: > 100 µM
SK-MEL-5 melanoma
  TGI: 29.5 µM
MDA-MB-435
  TGI: > 100 µM
IGROV1 ovarian
  TGI: 77 µM
OVCAR-4 ovarian
  TGI: > 79 µM
SN12C renal
  TGI: > 100 µM
HL-60(TB) leukemia
  TGI: > 44100 nM
SF-295 CNS
  TGI: > 100 µM
MOLT-4 leukemia
  TGI: > 76.3 µM
MDA-MB-231 breast
  TGI: > 100 µM
NCI-H226 lung
  TGI: > 100 µM
SW-620 colon
  TGI: 32 µM
UACC-62 melanoma
  TGI: 33.4 µM
